Results reported in patent US7582627B2, “3-aminoquinazolin-2,4-dione antibacterial agents” (Warner-Lambert Company, priority 2000, dated 2009).
≈ marks a conversion by molar mass, not a printed value. Structures can show the parent of a compound that is named as a salt. Where two headings read alike, the source gives them in different places.

Tests used:
E. coli B90 = experiment: Antibacterial assay, microtitration MIC; format: cell-based; conditions: for MIC: Escherichia coli
Method: (§1) The compounds of the present invention are tested against an assortment of Gram negative and Gram positive organisms using standard microtitration techniques (Cohen et al., Antimicrob. Agents Chemother., 1985; 28:766; Heifetz et al., Antimicrob. Agents Chemother., 1974; 6:124). The results of the evaluation of representative 3-aminoquinazolin-2,4-diones of Formula I are shown in Table 2 and compared to two 3-hydroxyquinazolin-2,4-diones.

E. coli Tol C = experiment: Antibacterial assay, microtitration MIC; format: cell-based; conditions: for MIC: Escherichia coli, read-out: Minimum Inhibitory Concentrations E. coli Tol C
Method: as §1

S. aureus 29213 = experiment: Antibacterial assay, microtitration MIC; format: cell-based
Method: as §1

E. coli MC4100 = experiment: Antibacterial assay, microtitration MIC; format: cell-based; conditions: for MIC: Escherichia coli
Method: as §1

E. faecalis RB1 = experiment: Antibacterial assay, microtitration MIC; format: cell-based; conditions: for MIC: Enterococcus faecalis
Method: as §1

S. pyogenes C203 = experiment: Antibacterial assay, microtitration MIC; format: cell-based; conditions: for MIC: Streptococcus pyogenes
Method: as §1

E. coli gyrase = target: T1, E. coli gyrase (Escherichia coli, UniProt P0AES4+P0AES6); experiment: DNA gyrase supercoiling inhibition assay; format: biochemical
T1 construct: purchased Lucent, Ltd., Leicester, UK
Method: The effects of invention compounds on the activity of DNA gyrase is determined in the supercoiling inhibition assay, following reaction conditions recommended by the enzyme supplier (Lucent, Ltd., Leicester, UK). Reactions are performed in buffer G (35 mM Tris-HCl (pH 7.5), 24 mM KCl, 4 mM MgCl2, 2 mM DTT, 1.8 mM spermidine, 1 mM ATP, 0.1 mg/mL bovine serum albumin). Relaxed plasmid pBR322 (0.25 μg, Lucent, Ltd., Leicester, UK) is reacted with 1 U E. coli gyrase (Lucent, Ltd., Leicester, UK), in the absence or presence of test compounds, for 30 minutes at 37° C. Reactions are stopped by the addition of SDS and proteinase K to respective final concentrations of 1% and 0.5 mg/mL. After an additional 30 minutes at 37° C., one-tenth volume of 10× loading buffer (0.3% bromophenol blue, 16% Ficoll, 10 mM Na2HPO4) is added, and reactions are loaded onto agarose gels and electrophoresed. The concentration of representative invention compounds of Formula I inhibiting 50% of the supercoiling activity of DNA gyrase is given as an IC50 and recorded in Table 2.

S. aureus 2552 = experiment: Cross resistance antibacterial assay, microtitration MIC; format: cell-based; conditions: Staphylococcus aureus, read-out: Minimum Inhibitory Concentrations S. aureus 2552
Method: (§2) The compounds of the present invention are tested against an assortment of ciprofloxacin resistant E. coli and S. aureus organisms described below using standard microtitration techniques (Cohen, et al., Antimicrob. Agents Chemother., 1985; 28:766; Heifetz, et al., Antimicrob. Agents Chemother., 1974; 6:124).

E. coli JL4 = experiment: as above; format: cell-based; conditions: Escherichia coli, Tol C pump deficient strain with E. coli W3110 background, read-out: Minimum Inhibitory Concentrations E. coli JL4
Method: as §2

E. coli LLM1 = experiment: as above; format: cell-based; conditions: Escherichia coli, LLM1, read-out: Minimum Inhibitory Concentrations E. coli LLM1
Method: as §2

S. aureus 2558 = experiment: as above; format: cell-based; conditions: Staphylococcus aureus, 2558, read-out: Minimum Inhibitory Concentrations S. aureus 2558
Method: as §2

S. aureus UC-76 = experiment: as above; format: cell-based; conditions: Staphylococcus aureus, UC76; typical sensitive laboratory strain (wild type); read-out: Minimum Inhibitory Concentrations S. aureus UC-76
Method: as §2

S. aureus 2554 = experiment: as above; format: cell-based; conditions: Staphylococcus aureus, 2554, read-out: Minimum Inhibitory Concentrations S. aureus 2554
Method: as §2

[1] = B90, read-out: Minimum Inhibitory Concentrations E. coli B90
[2] = Staphylococcus aureus, 29213, read-out: Minimum Inhibitory Concentrations S. aureus 29213
[3] = MC4100, read-out: Minimum Inhibitory Concentrations E. coli MC4100
[4] = RB1, read-out: Minimum Inhibitory Concentrations E. faecalis RB1
[5] = C203, read-out: Minimum Inhibitory Concentrations S. pyogenes C203
[6] = supercoiling of relaxed pBR322, 30 minutes at 37° C., read-out: E. coli gyrase IC50
[7] = B90, Gram negative, read-out: Minimum Inhibitory Concentrations E. coli B90
[8] = Staphylococcus aureus, 29213, Gram positive, read-out: Minimum Inhibitory Concentrations S. aureus 29213
[9] = MC4100, Gram negative, read-out: Minimum Inhibitory Concentrations E. coli MC4100
[10] = RB1, Gram positive, read-out: Minimum Inhibitory Concentrations E. faecalis RB1
[11] = C203, Gram positive, read-out: Minimum Inhibitory Concentrations S. pyogenes C203

T1 sequence (P0AES4 whole entry, one chain of several): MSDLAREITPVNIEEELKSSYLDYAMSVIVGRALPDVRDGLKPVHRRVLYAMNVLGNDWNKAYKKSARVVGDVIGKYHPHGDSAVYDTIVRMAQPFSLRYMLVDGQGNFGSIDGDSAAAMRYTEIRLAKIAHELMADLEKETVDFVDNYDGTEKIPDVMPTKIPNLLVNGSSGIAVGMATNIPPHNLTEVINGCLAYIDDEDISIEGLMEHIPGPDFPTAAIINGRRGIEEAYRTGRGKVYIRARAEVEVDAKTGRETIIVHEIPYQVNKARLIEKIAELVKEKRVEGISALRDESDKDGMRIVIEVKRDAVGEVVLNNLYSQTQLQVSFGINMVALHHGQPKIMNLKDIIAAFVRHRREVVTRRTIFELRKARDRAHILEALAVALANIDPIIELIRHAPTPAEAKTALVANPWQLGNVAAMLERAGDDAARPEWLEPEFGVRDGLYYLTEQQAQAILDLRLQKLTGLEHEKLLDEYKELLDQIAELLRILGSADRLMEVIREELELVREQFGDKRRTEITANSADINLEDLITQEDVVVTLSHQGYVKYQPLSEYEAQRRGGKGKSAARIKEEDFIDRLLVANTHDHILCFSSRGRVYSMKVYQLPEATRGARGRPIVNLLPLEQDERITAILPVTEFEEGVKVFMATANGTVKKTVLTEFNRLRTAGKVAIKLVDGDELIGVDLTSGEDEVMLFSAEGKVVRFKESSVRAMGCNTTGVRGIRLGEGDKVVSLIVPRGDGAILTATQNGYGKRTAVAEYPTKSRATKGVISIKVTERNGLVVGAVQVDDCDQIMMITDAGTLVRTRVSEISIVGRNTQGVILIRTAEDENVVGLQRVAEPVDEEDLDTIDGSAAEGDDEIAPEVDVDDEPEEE

N[C@H]1CCN(c2c(F)c(F)c3c(=O)n(N)c(=O)n(C4CC4)c3c2F)C1 [Compound 9, 3-Amino-7-((S)-3-aminopyrrolidin-1-yl)-1-cyclopropyl-5,6,8-trifluoro-1H-quinazoline-2,4-dione hydrochloride]
MIC (E. coli B90; [1]): 1 µg/mL | MIC (E. coli Tol C): 0.5 µg/mL | MIC (S. aureus 29213; [2]): 16 µg/mL | MIC (E. coli MC4100; [3]): 2 µg/mL | MIC (E. faecalis RB1; [4]): 32 µg/mL | MIC (S. pyogenes C203; [5]): 16 µg/mL | IC50 (E. coli gyrase; [6]): 3000 nM

N[C@@H]1[C@H]2CN(c3cc4c(cc3F)c(=O)n(O)c(=O)n4C3CC3)C[C@@H]12 [drawing 284, reference compound]
MIC (E. coli B90; [7]): 0.25 µg/mL (≈ 0.752 µM) | MIC (E. coli Tol C): 0.25 µg/mL (≈ 0.752 µM) | MIC (S. aureus 29213; [8]): 4 µg/mL (≈ 12 µM) | MIC (E. coli MC4100; [9]): 1 µg/mL (≈ 3.01 µM) | MIC (E. faecalis RB1; [10]): 4 µg/mL (≈ 12 µM) | MIC (S. pyogenes C203; [11]): 2 µg/mL (≈ 6.02 µM) | IC50 (E. coli gyrase; [6]): 900 nM

O=c1c2cc(F)c(N3C[C@@H]4CCCN[C@@H]4C3)cc2n(C2CC2)c(=O)n1O [reference compound]
MIC (E. coli B90; [7]): 2 µg/mL (≈ 5.55 µM) | MIC (E. coli Tol C): 1 µg/mL (≈ 2.77 µM) | MIC (S. aureus 29213; [8]): 32 µg/mL (≈ 88.8 µM) | MIC (E. coli MC4100; [9]): 8 µg/mL (≈ 22.2 µM) | MIC (E. faecalis RB1; [10]): 64 µg/mL (≈ 178 µM) | MIC (S. pyogenes C203; [11]): 32 µg/mL (≈ 88.8 µM) | IC50 (E. coli gyrase; [6]): 5000 nM

Nc1c(F)c(N2CC[C@H](N)C2)c(F)c2c1c(=O)n(N)c(=O)n2C1CC1 [Compound 11, 7-((S)-3-Aminopyrrolidin-1-yl)-1-cyclopropyl-3,5-diamino-6,8-difluoro-1H-quinazoline-2,4-dione hydrochloride]
MIC (E. coli B90; [1]): 0.5 µg/mL | MIC (E. coli Tol C): 0.25 µg/mL | MIC (S. aureus 29213; [2]): 8 µg/mL | MIC (E. coli MC4100; [3]): 2 µg/mL | MIC (E. faecalis RB1; [4]): 8 µg/mL | MIC (S. pyogenes C203; [5]): 4 µg/mL | IC50 (E. coli gyrase; [6]): 11000 nM

N[C@@H]1[C@H]2CN(c3cc4c(cc3F)c(=O)n(O)c(=O)n4C3CC3)C[C@@H]12 [drawing 287, reference compound]
MIC (S. aureus 2552): 32 µg/mL (≈ 96.3 µM) | MIC (E. coli JL4): 0.25 µg/mL (≈ 0.752 µM) | MIC (E. coli LLM1): 4 µg/mL (≈ 12 µM) | MIC (S. aureus 2558): > 64 µg/mL | MIC (S. aureus UC-76): 4 µg/mL (≈ 12 µM) | MIC (S. aureus 2554): 32 µg/mL (≈ 96.3 µM)

N[C@H]1CCN(c2cc3c(cc2F)c(=O)n(O)c(=O)n3C2CC2)C1 [reference compound]
MIC (S. aureus 2552): > 64 µg/mL | MIC (E. coli JL4): 0.5 µg/mL (≈ 1.56 µM) | MIC (E. coli LLM1): 2 µg/mL (≈ 6.24 µM) | MIC (S. aureus 2558): > 64 µg/mL | MIC (S. aureus UC-76): 4 µg/mL (≈ 12.5 µM) | MIC (S. aureus 2554): > 64 µg/mL

Cl.N[C@H]1CCN(c2c(F)cc3c(=O)n(N)c(=O)n(NC4CC4)c3c2F)C1 [Compound 7, 3-Amino-7-[(S)-3-aminopyrrolidin-1-yl]-1-cyclopropylamino-6,8-difluoro-1H-quinazoline-2,4-dione hydrochloride]
Minimum Inhibitory Concentrations E. coli B90 (E. coli B90; Gram negative): 0.5 µg/mL | Minimum Inhibitory Concentrations E. coli Tol C (E. coli Tol C; Gram negative): 0.25 µg/mL | Minimum Inhibitory Concentrations S. aureus 29213 (S. aureus 29213; Gram positive): 8.0 µg/mL | Minimum Inhibitory Concentrations E. coli MC4100 (E. coli MC4100; Gram negative): 2.0 µg/mL | Minimum Inhibitory Concentrations E. faecalis RB1 (E. faecalis RB1; Gram positive): 8.0 µg/mL | Minimum Inhibitory Concentrations S. pyogenes C203 (S. pyogenes C203; Gram positive): 4.0 µg/mL | IC50 (E. coli gyrase; [6]): 1300 nM

Cl.N[C@@H]1CN(c2c(F)cc3c(=O)n(N)c(=O)n(C4CC4)c3c2Cl)CC12CC2 [Compound 14, 3-Amino-7-((S)-7-amino-5-azaspiro[2.4]hept-5-yl)-8-chloro-1-cyclopropyl-6-fluoro-1H-quinazoline-2,4-dione hydrochloride]
MIC (E. coli B90; [7]): 0.25 µg/mL | MIC (E. coli Tol C): 0.5 µg/mL | MIC (S. aureus 29213; [8]): 8 µg/mL | MIC (E. coli MC4100; [9]): 4 µg/mL | MIC (E. faecalis RB1; [10]): 8 µg/mL | MIC (S. pyogenes C203; [11]): 4 µg/mL | IC50 (E. coli gyrase): 2400 nM | melting point: 177 to 179 °C

Cc1c(N2CCC(CN)(c3ccccc3)C2)c(F)cc2c(=O)n(N)c(=O)n(C3CC3)c12.Cl (stereo not drawn)
melting point: 227 to 231 °C

Cc1c(N2CCC(C(=O)O)C2)c(F)cc2c(=O)n(N)c(=O)n(C3CC3)c12.O=C(O)C(F)(F)F (stereo not drawn)
melting point: 226 °C (dec.)

COc1c(N2CCC(C(=O)O)C2)c(F)cc2c(=O)n(N)c(=O)n(C3CC3)c12.O=C(O)C(F)(F)F (stereo not drawn)
melting point: 252 °C (dec.)

N[C@H]1CCN(c2c(F)c(F)c3c(=O)n(N)c(=O)n(C4CC4)c3c2F)C1 (as salt: hydrochloride) [Compound 9, 3-Amino-7-((S)-3-aminopyrrolidin-1-yl)-1-cyclopropyl-5,6,8-trifluoro-1H-quinazoline-2,4-dione hydrochloride]
melting point: 271 °C (dec.)

Cc1c(N2CC[C@H]([C@@H](C)N)C2)c(F)cc2c(=O)n(N)c(=O)n(C3CC3)c12.Cl [Compound 75]
melting point: 194 to 196 °C

NC1C2CN(c3c(F)cc4c(=O)n(N)c(=O)n(C5CC5)c4c3Cl)CC12 (stereo not drawn) (as salt: hydrochloride)
melting point: 111 to 114 °C

CCn1c(=O)n(N)c(=O)c2cc(F)c(N3CC[C@@H](C(C)(C)N)C3)cc21.Cl
melting point: > 250 °C

CC(C)(N)[C@@H]1CCN(c2nc3c(cc2F)c(=O)n(N)c(=O)n3C2CC2)C1.Cl
melting point: > 260 °C

COc1c(N2CCC(O)(CN)C2)c(F)cc2c(=O)n(N)c(=O)n(C3CC3)c12.Cl (stereo not drawn)
melting point: 202 °C

Cl.Nn1c(=O)c2cc(F)c(N3CC4CCNCC4C3)nc2n(C2CC2)c1=O (stereo not drawn)
melting point: 200 to 203 °C

CN[C@@H](C)[C@@H]1CCN(c2cc3c(c(C)c2F)c(=O)n(N)c(=O)n3C2CC2)C1.Cl
melting point: 182 to 185 °C

C[C@@H]1CN(c2c(F)cc3c(=O)n(N)c(=O)n(C4CC4)c3c2Cl)C[C@H]1CN.Cl (relative stereo)
melting point: 215 to 217 °C

COc1c(N2CCC(C(C)(C)O)C2)c(F)cc2c(=O)n(N)c(=O)n(C3CC3)c12.Cl (stereo not drawn)
melting point: 134 °C (dec.)

CC1(CN)CCN(c2c(F)cc3c(=O)n(N)c(=O)n(C4CC4)c3c2Cl)C1 (stereo not drawn) (as salt: hydrochloride) [Compound 3, 3-Amino-7-[3-(aminomethyl)-3-methylpyrrolidin-1-yl]-8-chloro-1-cyclopropyl-6-fluoro-1H-quinazoline-2,4-dione hydrochloride]
melting point: 166 to 168 °C

Cc1c(F)c(N2CCC(N)C2)cc2c1c(=O)n(N)c(=O)n2C1CC1.Cl (stereo not drawn)
melting point: 238 to 240 °C

Cl.Nn1c(=O)c2cc(F)c(C3CCC4CNCC4N3)nc2n(C2CC2)c1=O (stereo not drawn)
melting point: 200 to 202 °C

Cl.N[C@H]1CCN(c2cc3c(cc2F)c(=O)n(N)c(=O)n3C2CC2)C1
melting point: > 250 °C

Cl.NC1C2CN(c3nc4c(cc3F)c(=O)n(N)c(=O)n4C3CC3)CC12 (stereo not drawn)
melting point: 268 to 270 °C

Cl.NCC1CCN(c2cc3c(cc2F)c(=O)n(N)c(=O)n3C2CC2)C1 (stereo not drawn)
melting point: 170 to 172 °C

Nn1c(=O)c2cc(F)c(N3CCC4(CCNC4)C3)c(Cl)c2n(C2CC2)c1=O (stereo not drawn) [Compound 62, 3-Amino-8-chloro-1-cyclopropyl-7-(2,7-diazaspiro[4.4]non-2-yl)-6-fluoro-1H-quinazoline-2,4-dione]
melting point: 147 to 149 °C

CC1CCc2c(N3CC[C@@H]([C@H](C)N)C3)c(F)cc3c(=O)n(N)c(=O)n1c23.Cl (stereo partly drawn)
melting point: 197 to 199 °C

CCN[C@@H](C)[C@@H]1CCN(c2c(F)cc3c(=O)n(N)c(=O)n(C4CC4)c3c2C)C1.Cl
melting point: 210 to 215 °C

COc1c(N2CCC(CN)CC2)c(F)cc2c(=O)n(N)c(=O)n(C3CC3)c12.Cl
melting point: 201 °C
